From the supplement of paper PMC10949913

How the values were obtained:
Assay in all cases: area under concentration-response curve (viability) (AUC (a.u.)); higher = less active
Conditions in all cases: 48 h
CU-ACC2 = tested on: CU-ACC2
Outline: (§1)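 After 48 h of treatment with 23 nL of each library compound at 11 concentrations, three adrenocortical carcinoma cell lines in 1,536-well plates (500–1,000 cells/well, 5 µL medium) were given CellTiter-Glo for 15 minutes at room temperature. Luminescence was then read and normalised per plate to vehicle and empty-well controls. AC50 and area under the curve were drawn from fitted concentration-response curves of inhibitory or non-responding classes only.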

CU-ACC1 = tested on: CU-ACC1
Outline: as §1

NCI-H295R = tested on: NCI-H295R
Outline: as §1

Compound | area under concentration-response curve (CU-ACC2) | area under concentration-response curve (CU-ACC1) | area under concentration-response curve (NCI-H295R)
COc1cc(C[C@@H](CO)[C@H](CO)Cc2ccc(O)c(OC)c2)ccc1O | 575 | 534 | 517
CN[C@@H](C)C(=O)N[C@H](C(=O)N1CCC[C@H]1c1nc(C(=O)c2ccc(F)cc2)cs1)C1CCCCC1 | 571 | 525 | 546
C[C@]12CC[C@@H]3c4ccc(O)cc4CC[C@H]3[C@@H]1[C@@H](O)[C@@H](O)[C@@H]2O | 565 | 494 | 520
CNC1CCCN(C1)C2=C(F)C=C3C(=O)\C(=C/N(C4CC4)C3=C2OC)C(O)=O (stereo not given) | 655 | 530 | 564
O=C(CBr)N1CC([N+](=O)[O-])([N+](=O)[O-])C1 | 464 | 454 | 439
COC1=C(N2CCNC(C)C2)C(=CC3=C1N(\C=C(C(O)=O)/C3=O)C4CC4)F (stereo not given) | 609 | 543 | 509
CCc1cc(Nc2nccc(-c3c(-c4ccc(OC)c(C(=O)Nc5c(F)cccc5F)c4)nc4ccccn34)n2)c(OC)cc1N1CCC(N2CCN([S+](C)(=O)[O-])CC2)CC1 | 548 | 509 | 485
C\C1=C(\C=C(\C#N)C(=O)N1)C2=CC=NC=C2 | 515 | 532 | 543
CN(C)CC/C=C1/c2ccccc2COc2ccc(CC(=O)O)cc21 | 570 | 467 | 509
O=C(NCC1CCOCC1)c1cnc(Nc2ccc(Cl)cc2Cl)nc1C(F)(F)F | 562 | 399 | 525
COc1ccc([S+](=O)([O-])N[C@@H](CNc2nc(C)nc(N3CCC(c4ccc5c(n4)NCCC5)CC3)c2C)C(=O)O)cc1 | 441 | 554 | 589
COC(=O)N[C@@H](C)CNc1nccc(-c2cn(C(C)C)nc2-c2cc(Cl)cc(N[S+](C)(=O)[O-])c2F)n1 | 566 | 497 | 539
CN1C(=O)C(=C\C2=C1N=C(NC3=CC=CC(=C3)C(O)=O)N=C2)/C4=C(Cl)C=CC=C4Cl | 528 | 515 | 483
CCCCCCCCCCCCCCCC(=O)O[C@@H]1[C@@H](O)[C@@H](O)[C@@H]([C@H](NC(=O)[C@@H]2C[C@@H](CCC)CN2C)[C@H](C)Cl)O[C@@H]1SC.Cl | 583 | 489 | 513
COC1=C2OC(=O)\C=C/C2=CC3=C1OC=C3 | 482 | 420 | 475
Cc1onc(-c2ccccc2)c1-c1ccc([S+](N)(=O)[O-])cc1 | 570 | 457 | 535
Cc1ccc(NC(=O)c2cccc(N(C)C)c2)cc1NC(=O)c1ccc(O)cc1 | 556 | 496 | 511
CC(=O)N1CCC(Nc2cc(C(=O)NC[C@H](O)CN3CCc4ccccc4C3)ncn2)CC1 | 558 | 450 | 473

Compound | area under concentration-response curve (CU-ACC2) | area under concentration-response curve (CU-ACC1) | area under concentration-response curve (NCI-H295R)
CC(C)[C@H](N)C(=O)OCCOC[N]1C=NC2=C1\N=C(N)/NC2=O | 394 | 449 | 390
CC(=O)OCC(CCn1cnc2cnc(N)nc21)COC(C)=O | 596 | 565 | 570
Nc1nc(Cl)nc2c1ncn2[C@@H]1O[C@H](CO)[C@@H](O)[C@@H]1F | 559 | 468 | 537
COCCCc1sc(-c2ccccc2)nc1C(=O)Nc1ccccc1-c1nc2cc(CN3CCCC3)cnc2s1 | 564 | 563 | 567
c1ccc2[nH]c(-c3cscn3)nc2c1 | 630 | 557 | 556
O=C1c2ccccc2-c2n[nH]c3cccc1c23 | 587 | 494 | 530
CC1=NN(c2ccc(C(=O)O)cc2)C(=O)/C1=C/c1ccc(-c2cc(C)c(C)cc2[N+](=O)[O-])o1 | 661 | 556 | 585
CC#CCn1c(N2CCC[C@@H](N)C2)nc2c1c(=O)n(Cc1nc(C)c3ccccc3n1)c(=O)n2C | 606 | 503 | 561
CC1(C)Cc2c(sc(NC(=S)NC(=O)c3ccccc3)c2C(=O)O)CO1 | 586 | 490 | 522
Cc1[nH]nc(C(F)(F)F)c1Cc1sc2c(c1C(=O)N1C[C@](C)(O)CO1)c(=O)n(C)c(=O)n2C(C)C | 552 | 431 | 509
COCCNCCCn1c(C(=O)CF)c(-c2ccc(C)cc2)c2c(N)ncnc21 | 655 | 537 | 581
NC(=O)NO | 590 | 503 | 511
Cc1cn[nH]c1 | 575 | 492 | 524
C=C[C@H]1CN2CCC1C[C@@H]2C(O)c1ccnc2ccc(OC)cc12 (stereo not given in full) | 595 | 509 | 504
CN(C)c1ccc(O)c2c1C[C@H]1C[C@H]3[C@H](N(C)C)C(O)=C(C(N)=O)C(=O)[C@@]3(O)C(O)=C1C2=O | 524 | 453 | 473
CC(C)(CO)n1cc(C(=O)c2cncc(NC(=O)Cc3ccc(Cl)cn3)c2)c2cnc(N)nc21 | 576 | 532 | 496
Nc1cc(COc2c(Cl)cc(C[C@H](N)C(=O)O)cc2Cl)c2oc(-c3ccccc3)nc2c1 | 577 | 488 | 588
